The text below walks through data of ChEMBL document CHEMBL1201862, “PubChem BioAssay data set” (2004).

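Dose response: 5 concentrations. Exposure: 48 h. Format: 96-well plates. Endpoint: linear interpolation; highest concentration if not reached. GI50: concentration for 50% inhibition of growth.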 Active and inactive are the calls of the source. Rule as the data show it: active = GI50 up to about 1.1 µM and inactive = higher.

Test systems include K562; SK-MEL-28; RXF 393; LOX IMVI; KM12; SNB-19; HT-29; SW-620; KM-20L2; HCT-116; OVCAR-5; SF-539; COLO 205; SNB-75; HL-60; NCI-H226; OVCAR-8; UACC-62; HCT-15; NCI-H460.
Test in all cases: DTP human tumour cell line panel, 48 h

Consider `COc1ccc(O)c(C#N)c1C#N.COc1ccc(OC)c(C#N)c1C#N`, for which the GI50 with K562, in the assay with SK-MEL-28, in the assay on RXF 393, in the assay on LOX IMVI, in the assay with KM12 and with SNB-19 was > 100 µM (inactive) each time. Further, the GI50 in the assay on HT-29, in the assay on SW-620, in the assay on KM-20L2, in the assay with HCT-116, in the assay with OVCAR-5 and with SF-539 was > 100 µM (inactive) in each case. In addition, the GI50 is > 100 µM (inactive) with COLO 205; 45.8 µM (inactive) in the assay with SNB-75; > 100 µM (inactive) with HL-60; > 100 µM (inactive) in the assay with NCI-H226; > 100 µM (inactive) in the assay with OVCAR-8; > 100 µM (inactive) with UACC-62. Moreover, the values for the GI50 with HCT-15 and in the assay on NCI-H460 were greater than 100 µM and > 100 µM (inactive), respectively.

With `CNC(=O)OCc1c(CO)nc(SC)n1C`, the GI50 in the assay on K562, in the assay on SK-MEL-28, in the assay with RXF 393, in the assay with LOX IMVI, in the assay with KM12 and in the assay on SNB-19 was > 100 µM (inactive) each time. The GI50 with HT-29, with SW-620, in the assay on KM-20L2, with HCT-116, in the assay with OVCAR-5 and in the assay with SF-539 was > 100 µM (inactive) each time. In addition, the GI50 in the assay on COLO 205, with SNB-75, in the assay on HL-60, with NCI-H226, with OVCAR-8 and in the assay with UACC-62 was > 100 µM (inactive) each time. The GI50 with HCT-15 was greater than 100 µM; with NCI-H460, > 100 µM (inactive).

Regarding `O=C(O)c1ccccc1/N=C/c1ccc(N(CCCl)CCCl)cc1`, the GI50 was > 100 µM (inactive) in the assay on K562; > 100 µM (inactive) in the assay on SK-MEL-28; > 48.3 µM (inactive) in the assay on RXF 393; > 100 µM (inactive) with LOX IMVI; > 100 µM (inactive) in the assay with KM12; > 100 µM (inactive) in the assay on SNB-19. Further, the GI50 is > 100 µM (inactive) in the assay with HT-29; > 100 µM (inactive) in the assay on SW-620; > 100 µM (inactive) in the assay with KM-20L2; > 100 µM (inactive) in the assay on HCT-116; > 100 µM (inactive) in the assay on OVCAR-5; > 66.5 µM (inactive) in the assay on SF-539. Also, the GI50 was > 100 µM (inactive) with COLO 205; > 100 µM (inactive) in the assay on SNB-75; 29.4 µM (inactive) in the assay with HL-60; > 100 µM (inactive) in the assay on OVCAR-8; 5.74 µM (inactive) in the assay on UACC-62; greater than 100 µM in the assay on HCT-15. In addition, the GI50 in the assay on NCI-H460 is 31.5 µM (inactive).

`CCOC(=O)Cn1c(=O)ccn(COCCO)c1=O`: the GI50 in the assay with K562, with SK-MEL-28, in the assay on RXF 393, in the assay with LOX IMVI, in the assay on KM12 and with SNB-19 was > 100 µM (inactive) in each case. The GI50 with HT-29, with SW-620, with OVCAR-5, in the assay with SF-539, with COLO 205 and in the assay on SNB-75 was > 100 µM (inactive) throughout. In addition, the GI50 with HL-60 was > 100 µM (inactive); with OVCAR-8, > 100 µM (inactive); with HCT-15, greater than 100 µM; in the assay with NCI-H460 it was > 100 µM (inactive).

Turning to `CC(C)=CC1C(C(=O)O)C1(C)C` (stereo not given) [CHRYSANTHEMIC ACID], the GI50 in the assay on K562, with SK-MEL-28, in the assay with RXF 393, in the assay with LOX IMVI, in the assay on KM12 and with SNB-19 was > 750 µM (inactive) in each case. Further, the GI50 with HT-29, in the assay with SW-620, in the assay with KM-20L2, in the assay on HCT-116, with OVCAR-5 and with SF-539 was > 750 µM (inactive) throughout. Also, the GI50 in the assay with COLO 205 is > 750 µM (inactive); in the assay with SNB-75, > 750 µM (inactive); in the assay with HL-60 it was > 750 µM (inactive); in the assay on NCI-H226, 75 µM (inactive); in the assay with OVCAR-8 it was > 750 µM (inactive); with UACC-62, > 750 µM (inactive). Besides, the GI50 in the assay on HCT-15 was greater than 750 µM; in the assay on NCI-H460 it was > 750 µM (inactive).
